Experimental data as given in BindingDB's records for doi:10.1038/sj.bjp.0702751 (Cerebrus, 1999).

Columns and labels:
[1] = target: 5-hydroxytryptamine receptor 2B (Homo sapiens, UniProt P41595)
[2] = target: T1, 5-hydroxytryptamine receptor 2C (Homo sapiens, UniProt P28335)
T1 sequence (P28335 whole entry): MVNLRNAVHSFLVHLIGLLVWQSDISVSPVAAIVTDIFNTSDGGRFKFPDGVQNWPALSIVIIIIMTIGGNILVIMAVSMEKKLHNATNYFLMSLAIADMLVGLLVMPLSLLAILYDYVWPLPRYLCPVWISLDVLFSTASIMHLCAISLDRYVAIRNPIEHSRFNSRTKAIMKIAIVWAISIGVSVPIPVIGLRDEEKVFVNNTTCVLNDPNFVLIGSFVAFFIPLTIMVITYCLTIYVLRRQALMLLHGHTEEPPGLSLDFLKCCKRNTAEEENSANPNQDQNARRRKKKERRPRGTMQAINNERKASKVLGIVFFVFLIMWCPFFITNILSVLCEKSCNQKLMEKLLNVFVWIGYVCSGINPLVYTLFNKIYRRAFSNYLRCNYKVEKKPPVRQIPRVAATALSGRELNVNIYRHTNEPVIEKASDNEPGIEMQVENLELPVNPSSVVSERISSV

5-hydroxytryptamine receptor 2B, sequence (P41595 whole entry): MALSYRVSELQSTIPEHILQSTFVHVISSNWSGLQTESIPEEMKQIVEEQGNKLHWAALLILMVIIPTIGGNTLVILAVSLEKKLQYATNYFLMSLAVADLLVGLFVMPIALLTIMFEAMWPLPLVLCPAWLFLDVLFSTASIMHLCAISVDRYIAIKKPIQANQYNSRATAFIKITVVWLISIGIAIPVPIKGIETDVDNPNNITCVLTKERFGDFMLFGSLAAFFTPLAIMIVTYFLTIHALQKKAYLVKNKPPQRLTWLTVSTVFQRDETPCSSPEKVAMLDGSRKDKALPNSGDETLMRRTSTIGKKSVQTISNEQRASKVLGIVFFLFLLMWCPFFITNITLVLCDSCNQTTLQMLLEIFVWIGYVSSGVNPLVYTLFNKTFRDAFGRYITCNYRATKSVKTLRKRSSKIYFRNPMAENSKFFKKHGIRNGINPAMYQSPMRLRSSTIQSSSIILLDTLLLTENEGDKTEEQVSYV

CCCN(CCC)C1CCc2cccc(O)c2C1 (configuration not stated) was tested, and the Ki [1] was 891 nM.
Work on Cc1[nH]c2ccc(O)cc2c1CCN yielded a Ki [1] of 170 nM and a Ki [2] of 1200 nM.
With NCCc1c[nH]c2ccccc12 [1H-indole-3-ethanamine] the Ki [1] was 29.5 nM and the Ki [2] was 45.7 nM.
COc1cc(CC(C)N)c(OC)cc1Br (stereo not drawn) [2-(4-Bromo-2,5-dimethoxy-phenyl)-1-methyl-ethylamine((-)-DOB)] was tested, and the Ki [1] was 2.88 nM.
Compound FC(F)(F)c1ccc(N2CCNCC2)nc1Cl [2-Chloro-3-(trifluoromethyl)-6-(1-piperazinyl)pyridine] has a Ki [1] of 525 nM and a Ki [2] of 97.7 nM.
c1ccc2nc(N3CCNCC3)ccc2c1 [2-Piperazin-1-yl-quinoline (Quipazine)] showed a Ki [1] of 178 nM and a Ki [2] of 339 nM.
For Cn1cc(CCN)c2cc(O)ccc21 [5-HT,omega-N-Me], the Ki [1] was 2 nM and the Ki [2] was 11.5 nM.
Compound Clc1cncc(N2CCNCC2)n1 [L-630,571] has a Ki [1] of 295 nM and a Ki [2] of 214 nM.
In the case of CC(N)Cn1ccc2cc(F)c(Cl)cc21 (configuration not stated) [NSC_3045226], the Ki [1] is reported as 0.89 nM and the Ki [2] is reported as 32.4 nM.
Compound CC(N)Cc1c[nH]c2ccc(OCc3cccs3)cc12 (configuration not stated) [NSC_5311036] has a Ki [2] of 93.3 nM.
C[C@H](N)Cc1cccc(C(F)(F)F)c1 [Norfenfluramine (+)] was tested, and the Ki [1] was 8.71 nM and the Ki [2] was 170 nM.
COc1ccc2c(c1[C@@H]1CCNC1)CCC2 [ORG-37684] gave a Ki [1] of 11 nM and a Ki [2] of 6.76 nM.
Work on CN1CCc2cc(Cl)c(O)cc2[C@@H](c2ccccc2)C1 [SCH 23390,R(+)] yielded a Ki [1] of 70.8 nM and a Ki [2] of 40.7 nM.
FC(F)(F)c1cccc(N2CCNCC2)c1 [TFMPP] showed a Ki [1] of 288 nM.
NCCc1c[nH]c2ccc(C(N)=O)cc12 [[3H]-5-carboxamidotryptamine] gave a Ki [1] of 15.5 nM.
COc1cc(CC(C)N)c(OC)cc1I (configuration not stated) [[125I]2,5-dimethoxy-4-iodoamphetamine] gave a Ki [1] of 1.41 nM and a Ki [2] of 7.94 nM.
